Measured values taken from article PMC4581874 (PLoS ONE, 2015).

How the values were obtained:
FGFR1 = target: T1, FGFR1 (Homo sapiens, UniProt P11362); assay: In vitro kinase assay, FGFR1; format: biochemical
T1 construct: purchased Millipore UK Ltd., Dundee, UK (now Eurofins Scientific); KinaseProfiler / IC50 Profiler service
Experimental: (§1) All kinase assays were carried out using KinaseProfiler^TM and IC50 Profiler^TM (Millipore UK Ltd., Dundee, UK. Now Eurofins Scientific, Dundee, UK). All IC50 data were presented as the mean values. The Curves obtained to determine IC50 values were shown in Supporting Information (S1 Fig).

FGFR3 = target: T2, FGFR3 (Homo sapiens, UniProt P22607); assay: In vitro kinase assay, FGFR3; format: biochemical
T2 construct: purchased Millipore UK Ltd., Dundee, UK (now Eurofins Scientific); KinaseProfiler / IC50 Profiler service
T2 sequence (P22607 23-806): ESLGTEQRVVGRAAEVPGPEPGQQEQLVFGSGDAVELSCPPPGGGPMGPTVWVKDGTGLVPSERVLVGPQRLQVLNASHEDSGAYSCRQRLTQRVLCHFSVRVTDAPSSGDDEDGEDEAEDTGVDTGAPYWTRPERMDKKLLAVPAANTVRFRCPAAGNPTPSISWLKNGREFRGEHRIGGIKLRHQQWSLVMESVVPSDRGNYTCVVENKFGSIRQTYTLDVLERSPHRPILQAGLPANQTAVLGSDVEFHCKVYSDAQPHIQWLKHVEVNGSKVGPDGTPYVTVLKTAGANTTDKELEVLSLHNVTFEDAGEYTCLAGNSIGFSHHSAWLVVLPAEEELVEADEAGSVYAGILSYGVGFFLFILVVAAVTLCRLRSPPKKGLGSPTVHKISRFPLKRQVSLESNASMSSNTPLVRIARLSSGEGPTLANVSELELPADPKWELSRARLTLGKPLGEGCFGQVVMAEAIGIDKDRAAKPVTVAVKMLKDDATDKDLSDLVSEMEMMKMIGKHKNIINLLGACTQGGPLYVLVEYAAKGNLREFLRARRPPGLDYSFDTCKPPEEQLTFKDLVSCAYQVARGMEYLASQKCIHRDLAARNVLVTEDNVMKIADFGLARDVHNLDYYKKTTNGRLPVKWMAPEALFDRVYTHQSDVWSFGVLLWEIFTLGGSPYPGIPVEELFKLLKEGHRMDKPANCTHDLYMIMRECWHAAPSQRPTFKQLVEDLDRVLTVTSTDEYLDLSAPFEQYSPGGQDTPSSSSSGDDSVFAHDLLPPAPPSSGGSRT
Experimental: as §1

VEGFR-3 = target: T3, VEGFR-3 (Homo sapiens, UniProt P35916); assay: In vitro kinase assay, VEGFR-3; format: biochemical
T3 construct: purchased Millipore UK Ltd., Dundee, UK (now Eurofins Scientific); KinaseProfiler / IC50 Profiler service
T3 sequence (P35916 25-1363): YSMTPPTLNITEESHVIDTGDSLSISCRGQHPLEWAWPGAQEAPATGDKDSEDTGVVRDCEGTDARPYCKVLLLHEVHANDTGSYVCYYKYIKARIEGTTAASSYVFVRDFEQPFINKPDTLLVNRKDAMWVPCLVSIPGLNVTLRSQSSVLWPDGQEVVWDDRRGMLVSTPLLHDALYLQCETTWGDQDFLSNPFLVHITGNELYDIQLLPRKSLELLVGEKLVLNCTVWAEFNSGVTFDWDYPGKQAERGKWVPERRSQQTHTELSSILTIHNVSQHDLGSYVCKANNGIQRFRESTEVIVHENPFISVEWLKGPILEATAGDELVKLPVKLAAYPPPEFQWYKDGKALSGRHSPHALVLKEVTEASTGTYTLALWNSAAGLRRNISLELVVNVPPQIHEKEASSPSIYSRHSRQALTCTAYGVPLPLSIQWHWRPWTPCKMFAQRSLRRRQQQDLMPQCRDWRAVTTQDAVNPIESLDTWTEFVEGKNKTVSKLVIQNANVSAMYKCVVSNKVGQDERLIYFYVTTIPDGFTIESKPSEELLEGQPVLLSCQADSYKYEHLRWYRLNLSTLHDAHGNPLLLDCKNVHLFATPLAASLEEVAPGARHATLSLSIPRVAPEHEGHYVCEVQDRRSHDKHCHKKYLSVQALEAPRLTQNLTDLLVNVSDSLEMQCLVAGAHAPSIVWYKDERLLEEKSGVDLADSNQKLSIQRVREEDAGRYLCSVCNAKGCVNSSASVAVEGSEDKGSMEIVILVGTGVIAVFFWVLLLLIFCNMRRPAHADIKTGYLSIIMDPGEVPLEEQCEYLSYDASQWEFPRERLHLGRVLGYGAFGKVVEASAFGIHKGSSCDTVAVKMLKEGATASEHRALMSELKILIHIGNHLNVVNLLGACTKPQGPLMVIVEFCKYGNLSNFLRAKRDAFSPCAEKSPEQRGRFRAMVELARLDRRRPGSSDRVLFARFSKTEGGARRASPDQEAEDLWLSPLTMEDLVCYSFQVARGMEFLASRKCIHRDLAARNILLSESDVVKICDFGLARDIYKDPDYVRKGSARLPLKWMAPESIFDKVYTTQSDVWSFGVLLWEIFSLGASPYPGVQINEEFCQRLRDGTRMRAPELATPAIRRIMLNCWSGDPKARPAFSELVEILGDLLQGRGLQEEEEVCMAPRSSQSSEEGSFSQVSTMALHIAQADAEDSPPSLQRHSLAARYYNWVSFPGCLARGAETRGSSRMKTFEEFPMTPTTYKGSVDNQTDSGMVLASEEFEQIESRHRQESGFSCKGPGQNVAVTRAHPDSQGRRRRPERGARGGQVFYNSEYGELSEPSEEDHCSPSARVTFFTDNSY
Experimental: as §1

PDGFRβ = target: T4, PDGFRβ (Homo sapiens, UniProt P09619); assay: In vitro kinase assay, PDGFRβ; format: biochemical
T4 construct: purchased Millipore UK Ltd., Dundee, UK (now Eurofins Scientific); KinaseProfiler / IC50 Profiler service
T4 sequence (P09619 33-1106): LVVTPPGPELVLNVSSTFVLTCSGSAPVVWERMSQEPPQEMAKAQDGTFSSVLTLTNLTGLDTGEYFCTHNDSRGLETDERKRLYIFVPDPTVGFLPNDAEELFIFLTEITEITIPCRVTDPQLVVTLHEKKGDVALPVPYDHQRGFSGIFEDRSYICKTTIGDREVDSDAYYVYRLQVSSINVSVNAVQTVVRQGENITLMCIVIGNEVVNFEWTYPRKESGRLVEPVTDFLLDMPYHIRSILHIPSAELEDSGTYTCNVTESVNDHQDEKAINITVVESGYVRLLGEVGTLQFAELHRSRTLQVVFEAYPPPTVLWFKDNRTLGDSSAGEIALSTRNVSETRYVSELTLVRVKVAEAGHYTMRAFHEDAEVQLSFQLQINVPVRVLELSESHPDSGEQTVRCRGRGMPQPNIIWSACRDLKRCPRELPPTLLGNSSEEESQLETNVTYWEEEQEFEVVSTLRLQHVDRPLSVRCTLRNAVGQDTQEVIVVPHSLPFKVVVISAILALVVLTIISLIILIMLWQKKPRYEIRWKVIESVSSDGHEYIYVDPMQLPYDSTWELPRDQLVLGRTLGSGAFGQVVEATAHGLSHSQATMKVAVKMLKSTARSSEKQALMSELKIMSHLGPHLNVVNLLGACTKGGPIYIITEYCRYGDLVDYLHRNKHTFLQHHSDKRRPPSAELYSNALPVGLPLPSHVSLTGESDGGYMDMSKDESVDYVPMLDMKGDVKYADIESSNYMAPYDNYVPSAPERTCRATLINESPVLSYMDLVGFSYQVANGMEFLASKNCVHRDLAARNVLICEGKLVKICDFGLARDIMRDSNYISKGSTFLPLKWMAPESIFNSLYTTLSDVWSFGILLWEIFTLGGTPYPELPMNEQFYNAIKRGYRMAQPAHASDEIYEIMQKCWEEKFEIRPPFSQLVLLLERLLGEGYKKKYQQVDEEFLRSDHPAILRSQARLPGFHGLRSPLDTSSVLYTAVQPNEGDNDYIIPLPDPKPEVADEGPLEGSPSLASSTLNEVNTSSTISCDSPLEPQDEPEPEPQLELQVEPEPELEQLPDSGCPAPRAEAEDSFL
Experimental: as §1

Abl (h) = target: T5, Abl (h) (Homo sapiens, UniProt P00519); assay: Kinase profile, Abl; format: biochemical; conditions: mean ± S.D.
T5 construct: purchased Millipore (now Eurofins) KinaseProfiler / IC50 Profiler
Experimental: as §1

AMPKα1 (h) = target: T6, AMPKα1 (h) (Homo sapiens, UniProt Q13131); assay: Kinase profile, AMPKα1; format: biochemical; conditions: mean ± S.D.
T6 construct: purchased Millipore (now Eurofins) KinaseProfiler / IC50 Profiler
Experimental: as §1

CaMKIIβ (h) = target: T7, CaMKIIβ (h) (Homo sapiens, UniProt Q13554); assay: Kinase profile, CaMKIIβ; format: biochemical; conditions: mean ± S.D.
T7 construct: purchased Millipore (now Eurofins) KinaseProfiler / IC50 Profiler
Experimental: as §1

CaMKIV (h) = target: T8, CaMKIV (h) (Homo sapiens, UniProt Q16566); assay: Kinase profile, CaMKIV; format: biochemical; conditions: mean ± S.D.
T8 construct: purchased Millipore (now Eurofins) KinaseProfiler / IC50 Profiler
Experimental: as §1

CDK2/cyclin E (h) = target: T9, CDK2/cyclin E (h) (Homo sapiens, UniProt P24941); assay: Kinase profile, CDK2/cyclin E; format: biochemical; conditions: mean ± S.D.
T9 construct: purchased Millipore (now Eurofins) KinaseProfiler / IC50 Profiler
Experimental: as §1

CDK5/p35 (h) = target: T10, CDK5/p35 (h) (Homo sapiens, UniProt Q00535); assay: Kinase profile, CDK5/p35; format: biochemical; conditions: mean ± S.D.
T10 construct: purchased Millipore (now Eurofins) KinaseProfiler / IC50 Profiler
Experimental: as §1

CDK9/cyclin T1 (h) = target: T11, CDK9/cyclin T1 (h) (Homo sapiens, UniProt P50750); assay: Kinase profile, CDK9/cyclin T1; format: biochemical; conditions: mean ± S.D.
T11 construct: purchased Millipore (now Eurofins) KinaseProfiler / IC50 Profiler
Experimental: as §1

MAPK1 (h) = target: T12, MAPK1 (h) (Homo sapiens, UniProt P27361); assay: Kinase profile, MAPK1; format: biochemical; conditions: mean ± S.D.
T12 construct: purchased Millipore (now Eurofins) KinaseProfiler / IC50 Profiler
Experimental: as §1

p70S6K (h) = target: T13, p70S6K (h) (Homo sapiens, UniProt P23443); assay: Kinase profile, p70S6K; format: biochemical; conditions: mean ± S.D.
T13 construct: purchased Millipore (now Eurofins) KinaseProfiler / IC50 Profiler
Experimental: as §1

PhKγ2 (h) = target: T14, PhKγ2 (h) (Homo sapiens, UniProt P15735); assay: Kinase profile, PhKγ2; format: biochemical; conditions: mean ± S.D.
T14 construct: purchased Millipore (now Eurofins) KinaseProfiler / IC50 Profiler
Experimental: as §1

PKBβ (h) = target: T15, PKBβ (h) (Homo sapiens, UniProt P31751); assay: Kinase profile, PKBβ; format: biochemical; conditions: mean ± S.D.
T15 construct: purchased Millipore (now Eurofins) KinaseProfiler / IC50 Profiler
Experimental: as §1

PKCβI (h) = target: T16, PKCβI (h) (Homo sapiens, UniProt P05771); assay: Kinase profile, PKCβI; format: biochemical; conditions: mean ± S.D.
T16 construct: purchased Millipore (now Eurofins) KinaseProfiler / IC50 Profiler
Experimental: as §1

PKCγ (h) = target: T17, PKCγ (h) (Homo sapiens, UniProt P05129); assay: Kinase profile, PKCγ; format: biochemical; conditions: mean ± S.D.
T17 construct: purchased Millipore (now Eurofins) KinaseProfiler / IC50 Profiler
Experimental: as §1

PKCε (h) = target: T18, PKCε (h) (Homo sapiens, UniProt Q02156); assay: Kinase profile, PKCε; format: biochemical; conditions: mean ± S.D.
T18 construct: purchased Millipore (now Eurofins) KinaseProfiler / IC50 Profiler
T18 sequence (Q02156 whole entry): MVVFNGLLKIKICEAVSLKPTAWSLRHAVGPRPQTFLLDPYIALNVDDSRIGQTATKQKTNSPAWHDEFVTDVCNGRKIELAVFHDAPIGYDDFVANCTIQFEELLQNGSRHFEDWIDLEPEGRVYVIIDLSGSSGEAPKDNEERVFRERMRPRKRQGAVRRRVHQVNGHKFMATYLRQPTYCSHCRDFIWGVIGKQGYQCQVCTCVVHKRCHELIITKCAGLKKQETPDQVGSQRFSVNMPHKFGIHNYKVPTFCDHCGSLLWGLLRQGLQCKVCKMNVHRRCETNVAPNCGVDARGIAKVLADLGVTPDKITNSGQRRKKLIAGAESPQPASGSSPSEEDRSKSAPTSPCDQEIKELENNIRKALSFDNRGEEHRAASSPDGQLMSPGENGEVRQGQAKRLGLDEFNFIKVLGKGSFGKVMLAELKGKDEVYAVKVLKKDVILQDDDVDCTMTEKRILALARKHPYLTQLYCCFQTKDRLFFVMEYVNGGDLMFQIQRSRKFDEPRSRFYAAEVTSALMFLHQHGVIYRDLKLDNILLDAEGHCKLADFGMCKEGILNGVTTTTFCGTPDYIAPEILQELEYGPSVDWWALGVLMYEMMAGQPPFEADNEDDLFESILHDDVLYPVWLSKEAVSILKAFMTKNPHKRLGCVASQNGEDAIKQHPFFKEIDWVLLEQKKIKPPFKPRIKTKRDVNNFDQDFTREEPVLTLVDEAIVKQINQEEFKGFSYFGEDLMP
Experimental: as §1

PKCη (h) = target: T19, PKCη (h) (Homo sapiens, UniProt P24723); assay: Kinase profile, PKCη; format: biochemical; conditions: mean ± S.D.
T19 construct: purchased Millipore (now Eurofins) KinaseProfiler / IC50 Profiler
Experimental: as §1

PKCθ (h) = target: T20, PKCθ (h) (Homo sapiens, UniProt Q04759); assay: Kinase profile, PKCθ; format: biochemical; conditions: mean ± S.D.
T20 construct: purchased Millipore (now Eurofins) KinaseProfiler / IC50 Profiler
Experimental: as §1

PKG1α (h) = target: T21, PKG1α (h) (Homo sapiens, UniProt Q13976); assay: Kinase profile, PKG1α; format: biochemical; conditions: mean ± S.D.
T21 construct: purchased Millipore (now Eurofins) KinaseProfiler / IC50 Profiler
Experimental: as §1

PKG1β (h) = target: T22, PKG1β (h) (Homo sapiens, UniProt Q13976); assay: Kinase profile, PKG1β; format: biochemical; conditions: mean ± S.D.
T22 construct: purchased Millipore (now Eurofins) KinaseProfiler / IC50 Profiler
Experimental: as §1

ROCK-II (h) = target: T23, ROCK-II (h) (Homo sapiens, UniProt O75116); assay: Kinase profile, ROCK-II; format: biochemical; conditions: mean ± S.D.
T23 construct: purchased Millipore (now Eurofins) KinaseProfiler / IC50 Profiler
Experimental: as §1

SAPK2a (h) = target: T24, SAPK2a (h) (Homo sapiens, UniProt Q16539); assay: Kinase profile, SAPK2a; format: biochemical; conditions: mean ± S.D.
T24 construct: purchased Millipore (now Eurofins) KinaseProfiler / IC50 Profiler
T24 sequence (Q16539 whole entry): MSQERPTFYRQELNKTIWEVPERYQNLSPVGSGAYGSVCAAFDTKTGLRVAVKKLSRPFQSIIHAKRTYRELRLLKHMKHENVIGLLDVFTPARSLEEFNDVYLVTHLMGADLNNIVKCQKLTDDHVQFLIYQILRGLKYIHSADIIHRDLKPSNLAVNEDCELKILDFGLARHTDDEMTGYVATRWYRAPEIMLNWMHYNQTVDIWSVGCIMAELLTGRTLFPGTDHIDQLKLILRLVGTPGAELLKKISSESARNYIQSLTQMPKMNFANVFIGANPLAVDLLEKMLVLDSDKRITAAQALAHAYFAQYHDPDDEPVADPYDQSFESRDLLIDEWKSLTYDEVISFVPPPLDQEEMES
Experimental: as §1

HCC827 cells = assay: HCC827 cell viability assay; format: cell-based; conditions: Homo sapiens, 72 h, read-out: HCC827 IC50 (anti-proliferative activity)
Experimental: HCC827 cells were purchased from the American Type Culture Collection (ATCC, Manassas, VA, USA). […] Human umbilical vein endothelial cells (HUVECs, ScienCell Research Laboratories, Carlsbad, CA, USA) were cultured in endothelial growth medium-2 (EGM-2; Lonza, Walkersville, MD, USA) from passages 3 to 6.
After a 24-hour incubation, the cells were treated with a series of test compound dilutions for 72 hours. Cell viability was assessed using EZ-Cytox (Daeil Lab Service, Seoul, South Korea) according to the manufacturer’s instructions.
Cells were incubated for 72 h with a range of concentrations of MKP101, and cell viability was measured using the WST-1 assay. […] Western blot analysis using antibodies to phosphorylated and total EGFR from a representative experiment is shown. Cells were incubated for 3 h at the indicated concentration. (C) Graph showing the relative intensities of the total and phosphorylated EGFR as determined by band densitometry. IC50, half-maximal inhibitory concentration.

HUVECs = assay: VEGF-induced scratch wound migration assay; format: cell-based, human; conditions: VEGF 50 ng/mL, compound 0.5 μg/mL, 8 hours
Experimental: For the cell proliferation assays, cells were incubated overnight in endothelial basal media (EBM; Lonza, Walkersville, MD, USA) containing 0.5% FBS or supplemented with VEGF-A and/or VEGF inhibitors. The cells were washed with PBS and counted in 4 random microscope fields. The tube formation assay was performed by seeding cells on Matrigel-coated plates (BD Bioscience, Bedford, MA, USA) and incubating in EBM containing 0.5% FBS or supplemented with VEGF-A and/or VEGF inhibitors. After overnight incubation, tubule networks were quantified by measuring the tubule length in 4 random microscope fields. For the analysis of scratch wound migration, confluent cell monolayers grown on 6-well plates were scratched using a micropipette tip. After the plates were washed with PBS to remove dislodged cells and media, they were incubated with EBM containing 0.5% FBS or supplemented with VEGF and/or VEGF inhibitors for 8 hours. Cell migration was observed by optical microscopy and quantified by measuring the number of cells that had migrated from the wound edges.

T1 sequence (P11362 22-822): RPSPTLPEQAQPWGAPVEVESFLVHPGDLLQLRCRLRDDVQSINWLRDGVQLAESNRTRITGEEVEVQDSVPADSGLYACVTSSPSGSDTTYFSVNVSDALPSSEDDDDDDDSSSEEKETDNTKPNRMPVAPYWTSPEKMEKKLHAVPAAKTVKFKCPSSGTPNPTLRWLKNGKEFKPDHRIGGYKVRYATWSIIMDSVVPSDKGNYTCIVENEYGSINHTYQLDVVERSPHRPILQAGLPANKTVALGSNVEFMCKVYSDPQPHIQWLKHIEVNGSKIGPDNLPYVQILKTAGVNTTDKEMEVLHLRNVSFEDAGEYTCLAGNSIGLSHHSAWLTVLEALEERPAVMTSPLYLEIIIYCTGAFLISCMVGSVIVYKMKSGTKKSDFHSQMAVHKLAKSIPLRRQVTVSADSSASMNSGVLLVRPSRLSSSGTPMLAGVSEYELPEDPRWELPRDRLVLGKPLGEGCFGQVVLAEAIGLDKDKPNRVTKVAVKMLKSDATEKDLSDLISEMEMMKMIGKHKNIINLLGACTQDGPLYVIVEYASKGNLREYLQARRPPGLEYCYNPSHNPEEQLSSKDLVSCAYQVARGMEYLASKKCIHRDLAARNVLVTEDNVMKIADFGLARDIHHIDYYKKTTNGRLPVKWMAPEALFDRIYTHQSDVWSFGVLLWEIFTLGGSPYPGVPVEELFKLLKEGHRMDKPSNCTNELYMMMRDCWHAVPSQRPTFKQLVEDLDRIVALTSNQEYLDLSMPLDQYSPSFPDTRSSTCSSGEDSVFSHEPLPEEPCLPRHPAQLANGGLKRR

inhibition at 1 µM (FGFR1; 1 μM, mean ± S.D., read-out: % inhibition at 1 μM, FGFR1 (h)): 98 ± 1%
IC50 (FGFR1; in vitro kinase assay): 28 nM
inhibition at 1 µM (FGFR3; 1 μM, mean ± S.D., read-out: % inhibition at 1 μM, FGFR3 (h)): 96%
IC50 (FGFR3; in vitro kinase assay): 43 nM
inhibition at 1 µM (VEGFR-3; 1 μM, mean ± S.D., read-out: % inhibition at 1 μM, VEGFR-3 (h)): 98%
IC50 (VEGFR-3; in vitro kinase assay): 2 nM
inhibition at 1 µM (PDGFRβ; 1 μM, mean ± S.D., read-out: % inhibition at 1 μM, PDGFRβ (h)): 95 ± 1%
IC50 (PDGFRβ; in vitro kinase assay): 70 nM
inhibition at 1 µM (Abl (h)): 100 ± 2%
inhibition at 1 µM (AMPKα1 (h)): 0%
inhibition at 1 µM (CaMKIIβ (h)): 17 ± 4%
inhibition at 1 µM (CaMKIV (h)): 0%
inhibition at 1 µM (CDK2/cyclin E (h)): 8 ± 1%
inhibition at 1 µM (CDK5/p35 (h)): 38 ± 3%
inhibition at 1 µM (CDK9/cyclin T1 (h)): 54 ± 4%
inhibition at 1 µM (MAPK1 (h)): 4 ± 5%
inhibition at 1 µM (p70S6K (h)): 20 ± 3%
inhibition at 1 µM (PhKγ2 (h)): 0%
inhibition at 1 µM (PKBβ (h)): 14 ± 4%
inhibition at 1 µM (PKCβI (h)): 7 ± 5%
inhibition at 1 µM (PKCγ (h)): 12 ± 2%
inhibition at 1 µM (PKCε (h)): 2 ± 3%
inhibition at 1 µM (PKCη (h)): 0%
inhibition at 1 µM (PKCθ (h)): 16 ± 2%
inhibition at 1 µM (PKG1α (h)): 0%
inhibition at 1 µM (PKG1β (h)): 7 ± 1%
inhibition at 1 µM (ROCK-II (h)): 4 ± 1%
inhibition at 1 µM (SAPK2a (h)): 82 ± 2%
IC50 (HCC827 cells): 160 nM
Structure (SMILES): Cc1ccc(Nc2nccc(N(C)c3ccc4[nH]ccc4c3)n2)cc1S(N)(=O)=O [MKP101]
Effect on VEGF-induced increase in migration (HUVECs): significantly inhibited
